Reference: ChEMBL document CHEMBL5291721, “A preclinical secondary pharmacology resource illuminates target-adverse drug reaction associations of marketed drugs” (Nat Commun, 2023)

Legend:
[1] = molecular target: T1, Alpha-1A adrenergic receptor (Homo sapiens, UniProt P35348); assay type: functional, cell-based
T1 sequence (P35348 whole entry): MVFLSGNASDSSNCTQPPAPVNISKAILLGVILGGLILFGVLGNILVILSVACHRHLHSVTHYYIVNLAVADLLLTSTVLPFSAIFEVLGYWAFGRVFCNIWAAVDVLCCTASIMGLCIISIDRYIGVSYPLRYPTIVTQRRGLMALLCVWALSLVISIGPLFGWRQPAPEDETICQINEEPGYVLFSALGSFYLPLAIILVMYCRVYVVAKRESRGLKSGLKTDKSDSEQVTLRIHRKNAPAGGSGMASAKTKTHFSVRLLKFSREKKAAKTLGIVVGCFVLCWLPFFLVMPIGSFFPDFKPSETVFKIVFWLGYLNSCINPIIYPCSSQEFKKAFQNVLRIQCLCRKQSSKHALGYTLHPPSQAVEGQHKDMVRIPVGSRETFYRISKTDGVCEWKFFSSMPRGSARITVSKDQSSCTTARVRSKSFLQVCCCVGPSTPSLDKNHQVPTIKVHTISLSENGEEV

Histamine H3 receptor = Histamine H3 receptor (Homo sapiens, UniProt Q9Y5N1)
[2] = molecular target: T2, Gastrin/cholecystokinin type B receptor (Homo sapiens, UniProt P32239)
T2 sequence (P32239 whole entry): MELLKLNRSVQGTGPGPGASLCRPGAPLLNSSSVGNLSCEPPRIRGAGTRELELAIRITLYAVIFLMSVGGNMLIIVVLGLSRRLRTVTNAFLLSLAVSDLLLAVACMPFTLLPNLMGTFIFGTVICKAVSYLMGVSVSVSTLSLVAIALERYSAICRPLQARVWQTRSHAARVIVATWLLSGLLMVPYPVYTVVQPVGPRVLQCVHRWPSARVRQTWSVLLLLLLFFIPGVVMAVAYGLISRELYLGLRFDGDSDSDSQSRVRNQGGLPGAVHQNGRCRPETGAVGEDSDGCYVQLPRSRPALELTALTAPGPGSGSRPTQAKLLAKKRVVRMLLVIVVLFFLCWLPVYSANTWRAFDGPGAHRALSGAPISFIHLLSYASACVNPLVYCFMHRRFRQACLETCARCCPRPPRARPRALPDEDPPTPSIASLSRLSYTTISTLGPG

[3] = molecular target: T3, Prostaglandin G/H synthase 1 (Rattus norvegicus, UniProt Q63921); assay type: functional
T3 sequence (Q63921 whole entry): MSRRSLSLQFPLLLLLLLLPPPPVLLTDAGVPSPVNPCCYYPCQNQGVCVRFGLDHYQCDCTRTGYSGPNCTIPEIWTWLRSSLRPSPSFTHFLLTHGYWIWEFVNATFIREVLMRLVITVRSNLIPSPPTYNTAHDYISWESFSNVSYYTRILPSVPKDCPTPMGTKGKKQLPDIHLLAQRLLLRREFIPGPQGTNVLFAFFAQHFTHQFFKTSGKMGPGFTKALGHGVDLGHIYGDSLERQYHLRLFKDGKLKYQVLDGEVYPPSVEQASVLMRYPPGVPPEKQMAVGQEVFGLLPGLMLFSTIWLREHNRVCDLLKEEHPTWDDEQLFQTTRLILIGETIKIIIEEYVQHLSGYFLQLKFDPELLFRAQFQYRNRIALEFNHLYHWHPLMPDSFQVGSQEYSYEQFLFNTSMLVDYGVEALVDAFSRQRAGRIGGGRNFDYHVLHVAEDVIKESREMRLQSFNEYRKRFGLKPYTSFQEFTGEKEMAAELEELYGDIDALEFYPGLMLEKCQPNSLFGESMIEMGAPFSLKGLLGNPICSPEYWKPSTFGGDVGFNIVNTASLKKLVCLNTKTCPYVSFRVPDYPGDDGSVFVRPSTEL

Progesterone receptor = molecular target: T4, Progesterone receptor (Homo sapiens, UniProt P06401); assay type: functional
T4 sequence (P06401 whole entry): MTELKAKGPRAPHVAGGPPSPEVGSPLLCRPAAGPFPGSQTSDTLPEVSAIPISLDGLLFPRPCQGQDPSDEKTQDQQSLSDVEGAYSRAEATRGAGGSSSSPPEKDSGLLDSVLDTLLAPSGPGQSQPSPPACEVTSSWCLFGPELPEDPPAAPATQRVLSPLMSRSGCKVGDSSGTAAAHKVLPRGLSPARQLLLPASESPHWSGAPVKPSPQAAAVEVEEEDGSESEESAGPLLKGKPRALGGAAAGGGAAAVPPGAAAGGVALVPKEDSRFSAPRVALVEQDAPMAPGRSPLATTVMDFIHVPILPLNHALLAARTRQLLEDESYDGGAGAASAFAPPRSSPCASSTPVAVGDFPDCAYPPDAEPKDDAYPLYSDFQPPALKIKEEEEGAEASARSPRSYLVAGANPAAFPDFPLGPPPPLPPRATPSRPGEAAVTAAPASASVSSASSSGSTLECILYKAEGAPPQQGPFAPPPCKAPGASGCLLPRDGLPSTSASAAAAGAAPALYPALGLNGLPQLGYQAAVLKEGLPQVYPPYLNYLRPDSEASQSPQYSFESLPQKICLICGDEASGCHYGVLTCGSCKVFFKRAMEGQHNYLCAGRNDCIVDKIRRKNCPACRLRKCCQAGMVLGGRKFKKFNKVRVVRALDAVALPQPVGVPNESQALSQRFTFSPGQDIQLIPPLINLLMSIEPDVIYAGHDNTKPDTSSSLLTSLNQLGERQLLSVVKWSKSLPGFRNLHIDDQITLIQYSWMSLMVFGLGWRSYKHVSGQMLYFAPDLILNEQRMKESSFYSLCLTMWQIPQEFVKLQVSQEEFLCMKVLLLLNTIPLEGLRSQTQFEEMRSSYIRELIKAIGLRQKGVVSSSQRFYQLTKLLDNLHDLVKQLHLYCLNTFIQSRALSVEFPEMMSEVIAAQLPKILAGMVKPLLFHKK

[4] = molecular target: 5-hydroxytryptamine receptor 2A (Homo sapiens, UniProt P28223); assay type: functional, cell-based
Further: assay procedure not described here.

Sequence of Histamine H3 receptor (Q9Y5N1 whole entry): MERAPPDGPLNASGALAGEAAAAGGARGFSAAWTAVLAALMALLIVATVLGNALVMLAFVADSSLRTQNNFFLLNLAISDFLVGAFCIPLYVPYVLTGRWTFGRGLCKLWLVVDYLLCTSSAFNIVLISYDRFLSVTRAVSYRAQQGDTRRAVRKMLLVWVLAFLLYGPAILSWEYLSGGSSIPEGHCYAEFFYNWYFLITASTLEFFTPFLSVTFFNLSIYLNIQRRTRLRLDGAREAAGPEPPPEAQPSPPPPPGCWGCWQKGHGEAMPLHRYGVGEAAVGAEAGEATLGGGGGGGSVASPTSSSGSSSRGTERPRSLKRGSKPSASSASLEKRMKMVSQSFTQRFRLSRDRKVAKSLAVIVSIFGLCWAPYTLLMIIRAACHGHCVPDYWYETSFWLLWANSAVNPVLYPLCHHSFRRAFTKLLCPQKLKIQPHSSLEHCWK
Sequence of 5-hydroxytryptamine receptor 2A (P28223 whole entry): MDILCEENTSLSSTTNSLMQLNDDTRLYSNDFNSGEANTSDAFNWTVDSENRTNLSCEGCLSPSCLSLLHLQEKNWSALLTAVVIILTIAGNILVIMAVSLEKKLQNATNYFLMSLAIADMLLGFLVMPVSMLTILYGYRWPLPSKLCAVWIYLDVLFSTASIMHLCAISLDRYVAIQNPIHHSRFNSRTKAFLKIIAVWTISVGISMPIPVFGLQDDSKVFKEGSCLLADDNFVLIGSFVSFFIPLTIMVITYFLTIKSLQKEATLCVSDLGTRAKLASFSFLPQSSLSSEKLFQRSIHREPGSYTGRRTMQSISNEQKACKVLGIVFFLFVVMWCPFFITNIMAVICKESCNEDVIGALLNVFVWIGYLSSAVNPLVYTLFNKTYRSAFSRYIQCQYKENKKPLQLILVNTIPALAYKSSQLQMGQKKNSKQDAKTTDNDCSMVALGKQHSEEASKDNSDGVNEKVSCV

Molecule | AC50 [1] | AC50 (Histamine H3 receptor) | AC50 [2] | AC50 [3] | AC50 (Progesterone receptor) | AC50 [4]
COC(=O)[C@H]1[C@@H](OC(=O)c2ccccc2)C[C@@H]2CC[C@H]1N2C [COCAINE] | > 30 µM | > 30 µM | > 30 µM | > 30 µM | > 30 µM | > 30 µM
CCCCCCCCCCCC[N+](C)(C)CCOc1ccccc1 [DOMIPHEN] | > 30 µM | 12 µM | > 10 µM | > 30 µM | 4.5 µM | 0.94 µM
O=C1CN=C(c2ccccc2)c2cc(Cl)ccc2N1CC(F)(F)F [HALAZEPAM] | > 30 µM | > 30 µM | > 30 µM | > 30 µM | > 30 µM | > 30 µM
CCCCCN(C)CCC(O)(P(=O)(O)O)P(=O)(O)O [IBANDRONIC ACID] | > 30 µM | > 30 µM | > 30 µM | > 30 µM | > 30 µM | > 30 µM
C1=Cc2cccc(OCC3CNCCO3)c2C1 (configuration not stated) [INDELOXAZINE] | > 30 µM | > 30 µM | > 30 µM | > 30 µM | > 30 µM | 17 µM
COc1ccc(C(=O)NCc2ccc(OCCN(C)C)cc2)cc1OC [ITOPRIDE] | > 30 µM | 19 µM | > 30 µM | > 10 µM | > 30 µM | > 30 µM
O=C(O)Cc1cn(-c2ccccc2)nc1-c1ccc(Cl)cc1 [LONAZOLAC] | > 30 µM | > 30 µM | > 10 µM | 19 µM | > 30 µM | > 30 µM
C[C@H]1C[C@@H]2[C@H]([C@@H](O)C[C@@]3(C)[C@H]2CC[C@]3(O)C(=O)COC(=O)CCC(=O)O)[C@@]2(C)C=CC(=O)C=C12 [METHYLPREDNISOLONE HEMISUCCINATE] | > 30 µM | > 30 µM | > 30 µM | > 30 µM | > 30 µM | > 30 µM
CCCCC(C)(O)C/C=C/[C@H]1[C@H](O)CC(=O)[C@@H]1CCCCCCC(=O)OC (some centres not stated) [MISOPROSTOL] | > 30 µM | > 30 µM | > 30 µM | > 30 µM | 27 µM | > 30 µM
O=C(OCCN1CCOCC1)c1cccnc1Nc1cccc(C(F)(F)F)c1 [MORNIFLUMATE] | > 30 µM | > 30 µM | > 30 µM | > 30 µM | > 30 µM | 2.9 µM
CCCCCCC(C)(C)c1cc(O)c2c(c1)OC(C)(C)C1CCC(=O)CC21 (configuration not stated) [NABILONE] | > 30 µM | > 30 µM | > 30 µM | > 30 µM | > 30 µM | > 30 µM
CCCCCCCCOc1ccccc1C(=O)Nc1ccc(C(=O)OCC[N+](C)(CC)CC)cc1 [OTILONIUM BROMIDE] | 12 µM | 17 µM | > 1 µM | 14 µM | 7 µM | 3.9 µM
Cc1nc2ccc(CN(C)c3ccc(C(=O)N[C@@H](CCC(=O)O)C(=O)O)s3)cc2c(=O)[nH]1 [RALTITREXED] | > 30 µM | > 30 µM | > 10 µM | > 30 µM | > 30 µM | > 30 µM
Cc1c(Cl)cccc1Nc1ccccc1C(=O)O [TOLFENAMIC ACID] | > 30 µM | > 30 µM | > 10 µM | 0.6 µM | 26 µM | 15 µM
Cc1ccc(-c2nc3ccc(C)cn3c2CC(=O)N(C)C)cc1 [ZOLPIDEM] | > 30 µM | > 30 µM | > 30 µM | > 30 µM | > 30 µM | > 30 µM
CN1CCN(C(=O)OC2c3nccnc3C(=O)N2c2ccc(Cl)cn2)CC1 (configuration not stated) [ZOPICLONE] | > 30 µM | > 30 µM | > 30 µM | > 30 µM | > 30 µM | > 30 µM
TOCOFERSOLAN | > 30 µM | > 30 µM | > 30 µM | 4 µM | > 30 µM | > 30 µM
